PubChem BioAssay AID489003 (NMMLSC, 2010)
Active and inactive are the calls of the source.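 How the source made its calls: active means compounds whose weighted score, built from EC50 under 10 micromolar and fitted span over a set limit, tops 52; inactive means the rest.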

Molecular target: Broad substrate specificity ATP-binding cassette transporter ABCG2 (Homo sapiens) (UniProt Q9UNQ0)
Assay: ABCG2 efflux pump inhibitors, dose response, Ig-MXP3 cells, JC-1 substrate, flow cytometry (AID 489003)
Conditions: JC-1 efflux

Broad substrate specificity ATP-binding cassette transporter ABCG2 (Homo sapiens), sequence (Q9UNQ0 whole entry, looked up): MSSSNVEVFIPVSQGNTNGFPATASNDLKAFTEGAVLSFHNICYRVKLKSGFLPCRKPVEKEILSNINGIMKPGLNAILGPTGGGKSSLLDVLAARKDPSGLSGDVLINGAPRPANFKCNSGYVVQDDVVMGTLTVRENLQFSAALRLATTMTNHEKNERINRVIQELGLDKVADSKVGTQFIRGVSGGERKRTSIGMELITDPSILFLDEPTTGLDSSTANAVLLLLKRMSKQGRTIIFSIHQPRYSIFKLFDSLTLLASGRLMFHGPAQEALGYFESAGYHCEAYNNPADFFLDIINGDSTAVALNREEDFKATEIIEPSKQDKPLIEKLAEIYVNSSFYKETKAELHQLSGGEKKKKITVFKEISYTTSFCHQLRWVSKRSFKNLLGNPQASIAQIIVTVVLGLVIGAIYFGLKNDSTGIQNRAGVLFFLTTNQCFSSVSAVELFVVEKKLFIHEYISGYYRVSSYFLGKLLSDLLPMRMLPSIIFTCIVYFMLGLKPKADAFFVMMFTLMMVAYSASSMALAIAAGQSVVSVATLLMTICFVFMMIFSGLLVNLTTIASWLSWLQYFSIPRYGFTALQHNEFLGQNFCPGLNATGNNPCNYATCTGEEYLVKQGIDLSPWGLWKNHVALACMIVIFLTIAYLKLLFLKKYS

| SMILES | EC50 | inhibition (at 50 µM (top of the series)) |
| --- | --- | --- |
| O=C(Nc1ccccc1)C1CCN(c2cc(-c3ccco3)nc3cc(-c4ccccc4)nn23)CC1 | 6490 nM |  |
| COc1cccc(-c2cc3nc(C)c(C(C)C)c(N4CCN(C(=O)c5ccoc5)CC4)n3n2)c1 | 6020 nM |  |
| O=C(c1ccoc1)N1CCN(c2cc(-c3cccs3)nc3cc(-c4ccccc4)nn23)CC1 | 1660 nM |  |
| O=C(OCc1ccccc1)N1CCN(c2cc(-c3ccco3)nc3cc(-c4ccccc4)nn23)CC1 | 2730 nM |  |
| COC(=O)c1cccc(-c2cc(N3CCN(C(=O)c4ccoc4)CC3)n3nc(-c4cccc(OC)c4)cc3n2)c1 | 1680 nM |  |
| COc1ccc(-c2[nH]nc3nc(N4CCN(C(=O)c5ccoc5)CC4)cc(C(F)(F)F)c23)cc1 | 8440 nM |  |
| O=C(c1ccoc1)N1CCN(c2cc(-c3cccc(F)c3)nc3cc(-c4cccc(Cl)c4)nn23)CC1 | 2300 nM |  |
| O=C(c1ccsc1)N1CCN(c2cc(-c3ccco3)nc3cc(-c4ccccc4)nn23)CC1 | 2870 nM |  |
| O=C(c1ccoc1)N1CCN(c2cc(-c3ccco3)nc3cc(-c4ccco4)nn23)CC1 | 697 nM |  |
| COc1cccc(-c2cc(N3CCN(C(=O)c4ccoc4)CC3)n3nc(-c4cccc(OC)c4)cc3n2)c1 | 540 nM |  |
| O=C(c1coc2ccccc12)N1CCN(c2cc(-c3ccco3)nc3cc(-c4ccccc4)nn23)CC1 | 1460 nM |  |
| O=C(c1ccoc1)N1CCN(c2cc(-c3cccc(F)c3)nc3cc(-c4ccccc4)nn23)CC1 | 2110 nM |  |
| COc1cccc(-c2cc3nc(-c4ccccc4)cc(N4CCN(C(=O)c5ccoc5)CC4)n3n2)c1 | 1920 nM |  |
| Cc1nc2cc(-c3ccc(Br)cc3)nn2c(N2CCN(C(=O)c3ccoc3)CC2)c1C | 10100 nM |  |
| Cc1cc(C(=O)N2CCN(c3cc(-c4ccco4)nc4cc(-c5ccccc5)nn34)CC2)c(C)o1 | 3810 nM |  |
| O=C(c1ccco1)N1CCN(c2c3c(nc4cc(-c5ccc(F)cc5)nn24)CCC3)CC1 | 701 nM |  |
| COc1cccc(-c2cc3nc(C)c(C)c(N4CCN(Cc5ccco5)CC4)n3n2)c1 | 393 nM |  |
| CN(CCCN(C)c1cc(-c2ccco2)nc2cc(-c3ccccc3)nn12)C(=O)c1ccoc1 | 2720 nM |  |
| CC(=O)N1CCN(c2cc(-c3ccccc3)nc3cc(-c4ccccc4)nn23)CC1 | 2360 nM |  |
| CC(=O)N1CCN(c2c(C)c(C)nc3cc(-c4ccc(F)cc4)nn23)CC1 | inactive |  |
| O=C(C1CCCO1)N1CCN(c2c3c(nc4cc(-c5cccc(F)c5)nn24)CCCC3)CC1 (centres undefined) | inactive |  |
| Cc1ccc(-c2cc3nc(-c4ccco4)cc(N4CCN(Cc5ccoc5)CC4)n3n2)cc1 | 1820 nM |  |
| Cc1nn2c(N3CCN(C(=O)c4ccco4)CC3)cc(C(C)(C)C)nc2c1-c1ccc(Cl)cc1 | 1920 nM |  |
| CN(C)c1cc(-c2ccco2)nc2cc(-c3ccccc3)nn12 | 8870 nM |  |
| COc1cccc(-c2cc3nc(-c4cccc(C#N)c4)cc(N4CCN(C(=O)c5ccoc5)CC4)n3n2)c1 | 2530 nM |  |
| COc1ccc(-c2cc3nc(C)c(C)c(N4CCN(C(C)=O)CC4)n3n2)cc1 | 6390 nM |  |
| COc1cccc(-c2cc(N3CCN(C(=O)c4ccoc4)CC3)n3nc(-c4ccccc4)cc3n2)c1 | 3330 nM |  |

| SMILES | EC50 | inhibition (at 50 µM (top of the series)) |
| --- | --- | --- |
| Cc1c(-c2ccco2)nc2cc(-c3ccccc3)nn2c1N1CCN(C(=O)c2ccoc2)CC1 | 2440 nM |  |
| CNCCN(C)c1cc(-c2ccco2)nc2cc(-c3ccccc3)nn12 | inactive |  |
| COc1ccc(-c2cc3nc(C)c(C)c(N4CCN(C(=O)c5ccco5)CC4)n3n2)cc1 | 2680 nM |  |
| Cc1nc2cc(-c3cccc(F)c3)nn2c(N2CCN(C(=O)c3ccco3)CC2)c1C | 1430 nM |  |
| COc1ccc(-c2cc(N3CCN(C(=O)c4ccoc4)CC3)n3nc(-c4ccccc4)cc3n2)cc1 | 3640 nM |  |
| CC(=O)N1CCN(c2cc(C)nc3cc(-c4cccc(F)c4)nn23)CC1 | inactive |  |
| CC(=O)N1CCN(c2cc(-c3ccco3)nc3cc(-c4cccc(Cl)c4)nn23)CC1 | 626 nM |  |
| O=C(c1ccoc1)N1CCCN(c2cc(-c3ccco3)nc3cc(-c4ccccc4)nn23)C1 | 1220 nM |  |
| O=C(c1ccoc1)N1CCN(c2cc(-c3ccco3)nc3cc(-c4cccc(Cl)c4)nn23)CC1 | 2960 nM |  |
| O=C(c1ccoc1)N1CCN(c2cc(-c3ccco3)nc3cc(-c4cccc(-c5ccco5)c4)nn23)CC1 | 503 nM |  |
| COc1ccc(-c2cc3nc(-c4ccccc4)cc(N4CCN(C(=O)c5ccoc5)CC4)n3n2)cc1 | 1620 nM |  |
| CCc1c(C)nc2cc(-c3cccc(OC)c3)nn2c1N1CCN(C(=O)c2ccoc2)CC1 | 1450 nM |  |
| Cc1nc2cc(-c3ccccc3)nn2c(N2CCN(C(=O)c3ccoc3)CC2)c1C | 2000 nM |  |
| COc1cccc(-c2cc3nc(C)c(C)c(N4CCN(C(=O)c5ccco5)CC4)n3n2)c1 | 7100 nM |  |
| COc1ccccc1-c1cc2nc(-c3ccco3)cc(N3CCN(C(=O)c4ccoc4)CC3)n2n1 | 4270 nM |  |
| Cc1cccc(-c2cc3nc(-c4ccco4)cc(N4CCN(C(=O)c5ccoc5)CC4)n3n2)c1 | 9090 nM |  |
| COc1cccc(-c2cc3nc(C)c(C)c(N4CCN(C(=O)c5ccoc5)CC4)n3n2)c1 | 3830 nM |  |
| O=C(c1ccco1)N1CCN(c2cc(-c3ccccc3)nc3ncnn23)CC1 | 3550 nM |  |
| COc1ccc(-c2cc3nc(-c4ccco4)cc(N4CCN(C(=O)c5ccoc5)CC4)n3n2)cc1 | 1800 nM |  |
| O=C(c1ccco1)N1CCN(c2cc(-c3ccco3)nc3cc(-c4ccccc4)nn23)CC1 | 852 nM |  |
| COc1cccc(-c2cc3nc(C)cc(N4CCN(C(=O)c5ccoc5)CC4)n3n2)c1 | 4570 nM |  |
| Cc1coc(C)c1C(=O)N1CCN(c2cc(-c3ccco3)nc3cc(-c4ccccc4)nn23)CC1 | 3220 nM |  |
| COc1ccccc1-c1cc(N2CCN(C(=O)c3ccoc3)CC2)n2nc(-c3ccccc3)cc2n1 | 1870 nM |  |
| CN(CCN(C)c1cc(-c2ccco2)nc2cc(-c3ccccc3)nn12)C(=O)c1ccoc1 | inactive |  |
| COc1ccc(-c2cc3nc(C)c(C)c(N4CCN(C(=O)c5ccoc5)CC4)n3n2)cc1 | 1200 nM |  |
| O=C(c1ccoc1)N1CCN(c2cc(-c3ccco3)nc3cc(-c4ccccc4)nn23)CC1 | 460 nM |  |

Next, values leading:

| EC50 | inhibition (at 50 µM (top of the series)) | SMILES |
| --- | --- | --- |
| 1510 nM |  | O=C(c1ccccc1)N1CCN(c2cc(-c3ccco3)nc3cc(-c4ccccc4)nn23)CC1 |
| 9310 nM |  | Cc1nc2cc(-c3cccc(Cl)c3)nn2c(N2CCN(C(=O)c3ccoc3)CC2)c1C |
| 788 nM |  | COc1cccc(-c2cc3nc(-c4cccc(C(F)(F)F)c4)cc(N4CCN(C(=O)c5ccoc5)CC4)n3n2)c1 |
| 664 nM |  | COc1cc(OC)cc(-c2cc3nc(C)c(C)c(N4CCN(C(=O)c5ccoc5)CC4)n3n2)c1 |
| 1690 nM |  | Cc1occc1C(=O)N1CCN(c2cc(-c3ccco3)nc3cc(-c4ccccc4)nn23)CC1 |
| 613 nM |  | Cc1nc2cc(-c3ccc4c(c3)OCO4)nn2c(N2CCN(C(=O)c3ccoc3)CC2)c1C |
| 6980 nM |  | c1ccc(-c2cc3nc(-c4ccco4)cc(N4CCNCC4)n3n2)cc1 |
| 1030 nM |  | O=C(c1ccoc1)N1CCN(c2cc(-c3ccccc3)nc3cc(-c4ccncc4)nn23)CC1 |
| inactive |  | CC(=O)N1CCN(c2cc(-c3ccco3)nc3cc(-c4ccccc4)nn23)CC1 |
| 1680 nM |  | c1ccc(CN2CCN(c3cc(-c4ccco4)nc4cc(-c5ccccc5)nn34)CC2)cc1 |
| 1360 nM |  | O=C1CN(c2cc(-c3ccco3)nc3cc(-c4ccccc4)nn23)CCN1c1ccccc1 |
|  | inactive | COc1ccccc1-c1c(C)nn2c(N3CCN(C(=O)c4ccco4)CC3)cc(C)nc12 |
| 2720 nM |  | O=C(c1ccoc1)N1CCN(c2cc(-c3ccco3)nc3cc(-c4ccc(Cl)cc4)nn23)CC1 |
| 12100 nM |  | O=C(c1ccoc1)N1CCN(c2cc(-c3ccc(F)cc3)nc3cc(-c4ccccc4)nn23)CC1 |
| 1860 nM |  | COc1cccc(-c2cc3nc(-c4ccco4)cc(N4CCN(C(=O)c5ccoc5)CC4)n3n2)c1 |
| 1450 nM |  | Cc1ccc(-c2cc(N3CCN(C(=O)c4ccoc4)CC3)n3nc(-c4ccccc4)cc3n2)o1 |

| EC50 | inhibition (at 50 µM (top of the series)) | SMILES |
| --- | --- | --- |
| 7190 nM |  | Cc1cc(N2CCN(C(=O)c3ccoc3)CC2)n2nc(-c3ccccc3)cc2n1 |
| 4170 nM |  | Cc1ccc(-c2nc3nc(C)cc(N4CCN(C(=O)c5ccco5)CC4)n3n2)cc1 |
| 3440 nM |  | CC1CN(C(=O)OC(C)(C)C)CCN1c1cc(-c2ccco2)nc2cc(-c3ccccc3)nn12 (centres undefined) |
| 1590 nM |  | O=C(c1ccoc1)N1CCN(c2cc(-c3ccoc3)nc3cc(-c4ccccc4)nn23)CC1 |
| 8180 nM |  | Cc1ccc(-c2cc3nc(-c4ccco4)cc(N4CCN(C(=O)c5ccoc5)CC4)n3n2)cc1 |
| inactive |  | CNCCCN(C)c1cc(-c2ccco2)nc2cc(-c3ccccc3)nn12 |
| 1670 nM |  | COc1cccc(-c2cc3nc(-c4ccccc4)c(C)c(N4CCN(C(=O)c5ccoc5)CC4)n3n2)c1 |
| 9430 nM |  | Cc1cc(N2CCN(C(=O)c3ccco3)CC2)n2nc(-c3ccccc3)nc2n1 |
| inactive |  | CC(C)(C)c1cc(N2CCN(C(=O)c3ccoc3)CC2)n2nc(-c3ccccc3)cc2n1 |
| 2480 nM |  | O=C(c1ccoc1)N1CCN(c2cc(-c3ccco3)nc3cc(-c4cccs4)nn23)CC1 |
| 2920 nM |  | CC1CN(C(=O)c2ccoc2)CCN1c1cc(-c2ccco2)nc2cc(-c3ccccc3)nn12 (centres undefined) |
| 3620 nM |  | O=C(c1ccoc1)N1CCN(c2cc(-c3ccccc3F)nc3cc(-c4ccccc4)nn23)CC1 |
| 7520 nM |  | Cc1cc(N2CCN(C(=O)c3ccco3)CC2)n2ncc(-c3ccccc3)c2n1 |
| 892 nM |  | COc1cccc(-c2cc3nc(-c4ccco4)cc(N4CCN(C(C)=O)CC4)n3n2)c1 |
| 7640 nM |  | Cc1nc2cc(-c3ccc(F)cc3)nn2c(N2CCN(C(=O)c3ccco3)CC2)c1C |
